Assay results as given in PubChem BioAssay (NCI).
Several values for one entry are separate records, joined by “and”; a condition that tells them apart may be missing. Identical values can stand only once.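 Grown in 96-well plates, cells were treated for 48 hours with each compound at five concentrations. Insufficient inhibition: endpoint recorded as highest concentration tested. Here, GI50 denotes the concentration required for 50% inhibition of growth. TGI is the concentration that stops growth completely.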 Where a SMILES comes first, the peptide text is derived from it. [ ]: non-standard residue; d: D form. Ac5c = NC1(C(=O)O)CCCC1

Columns and labels:
Experiment in all cases: NCI-60 cell line screen, 48 h
MALME-3M melanoma = system: MALME-3M melanoma
SR leukemia = system: SR leukemia
UACC-62 melanoma = system: UACC-62 melanoma
HCT-116 colon = system: HCT-116 colon
SF-539 CNS = system: SF-539 CNS
HT29 colon = system: HT29 colon
SNB-19 CNS = system: SNB-19 CNS
XF 498 CNS = system: XF 498 CNS
DLD-1 colon = system: DLD-1 colon

SMILES | TGI (MALME-3M melanoma) | GI50 (SR leukemia) [µM] | TGI (SR leukemia) | TGI (UACC-62 melanoma) | GI50 (HCT-116 colon) [µM] | TGI (HCT-116 colon) | GI50 (SF-539 CNS) [µM] | TGI (SF-539 CNS) | TGI (HT29 colon) | GI50 (SNB-19 CNS) [µM] | TGI (SNB-19 CNS) | TGI (XF 498 CNS) [µM] | TGI (DLD-1 colon) [µM] | GI50 (MALME-3M melanoma) [µM] | GI50 (UACC-62 melanoma) [µM] | GI50 (HT29 colon) [µM] | GI50 (XF 498 CNS) [µM] | GI50 (DLD-1 colon) [µM]
CCN(CC)CCCC(C)Nc1c2ccc(Cl)cc2nc2ccc(OC)cc12 (stereo unspecified) | 3.79 µM and 3.3 µM | 1.86 | 6 µM and 5.02 µM | 3.29 µM and 3.4 µM | 1.38 | 5.79 µM and 4.31 µM | 1.86 | 3.39 µM and 3.3 µM | 3.97 µM and 2.57 µM | 1.96 | 10.8 µM and 16.2 µM | 3.12 | 4.39 | – | – | – | – | –
O=C1OC(CC(=O)c2ccc(Cl)c(Cl)c2)C(Cl)=C1Cl (stereo unspecified) | > 100 µM | – | – | > 100 µM | – | – | – | > 100 µM | > 100 µM | – | > 100 µM | > 100 | > 100 | – | – | – | – | –
COc1ccccc1N1C(=O)/C(=C/c2ccc(N(CCC#N)CCC#N)cc2C)N=C1c1cc([N+](=O)[O-])ccc1Cl | > 100 µM | – | > 100 µM | – | – | > 100 µM | – | > 100 µM | > 100 µM | – | > 100 µM | > 100 | – | – | – | – | – | –
COC(=O)C1C(C(=O)OC)C2(OC)c3ccccc3-c3ccccc3C12 (stereo unspecified) | > 100 µM | – | 42 µM | > 100 µM | – | > 100 µM | – | > 100 µM | > 100 µM | – | > 100 µM | – | > 100 | – | – | – | – | –
COc1ccc(-c2onc(-c3ccc([N+](=O)[O-])cc3)c2C2=NCCN2)cc1 | > 100 µM | – | > 100 µM | > 100 µM | – | > 100 µM | – | > 100 µM | > 100 µM | – | > 100 µM | > 100 | > 100 | – | – | – | – | –
NC1(C(=O)NC2(C(=O)O)CCCC2)CCCC1 (H-[Ac5c]-[Ac5c]-OH) | > 100 µM | – | > 100 µM | > 100 µM | – | > 100 µM | – | > 100 µM | > 100 µM | – | > 100 µM | – | – | – | – | – | – | –
Cn1c([N+](=O)[O-])cnc1/C=C1\Oc2ccccc2C1=O | 3.2 µM | 0.0392 | 0.534 µM | 2.22 µM | 0.187 | 1.06 µM | 1.78 | 4.74 µM | 0.629 µM | 1.47 | 5.58 µM | – | – | 0.626 | 0.522 | 0.203 | – | –
Cc1nc2sc(C(=O)Nc3cccc(Cl)c3C)c(N)c2cc1C(=O)/C=C/c1ccccc1 | 4.47 µM | 0.188 | – | 1.91 µM | 0.186 | 0.707 µM | 0.595 | 1.43 µM | 0.888 µM | 0.651 | 3.11 µM | – | – | 0.315 | 0.303 | 0.178 | – | –
O=C1c2ccccc2-c2cccc3ccc(Cc4ccc5ccccc5c4)c1c23 | > 100 µM | – | – | > 100 µM | – | > 100 µM | – | > 100 µM | > 100 µM | – | > 100 µM | > 100 | > 100 | – | – | – | – | –
CC1=C2[C@@H](CC1)[C@]1(C)O[C@@](C3CCCCC3)(C[C@H]1OC(=O)CO)[C@H]2OC(=O)/C=C/c1ccccc1 | 28 µM | 4.6 | 17.9 µM | 25.8 µM | 7.12 | 21.1 µM | 12.8 | 27.7 µM | 16.9 µM | 13.1 | 31.4 µM | – | – | 12 | 9.82 | 6.1 | – | –
CC[C@H](NC(=O)[C@H](C)NC)C(=O)N1C[C@@H](O)C[C@H]1Cc1c(-c2[nH]c3cc(F)ccc3c2C[C@@H]2C[C@H](O)CN2C(=O)[C@H](CC)NC(=O)[C@H](C)NC)[nH]c2cc(F)ccc12 | > 100 µM | 15.5 | > 100 µM | > 100 µM | > 100 | > 100 µM | < 0.01 | 0.146 µM | > 100 µM | > 100 | > 100 µM | – | – | > 100 | > 100 | 62 | – | –
CCOC(=O)C(N)C[S][Sn]([CH3])([CH3])[Cl] (stereo unspecified) | > 100 µM | – | – | > 100 µM | > 100 | > 100 µM | > 100 | > 100 µM | > 100 µM | > 100 | > 100 µM | > 100 | > 100 | > 100 | 65.9 | > 100 | > 100 | > 100
COc1cc(/C=C/C(=O)CC(=O)/C=C/c2cc(OC)c(OC)c(OC)c2)cc(OC)c1OC | 21.7 µM | 2.19 | 9.55 µM | 13.4 µM | 1.71 | 4.26 µM | 4.85 | 71.8 µM | 13.6 µM | 4.36 | > 100 µM | – | – | 5.06 | 3.17 | 3.66 | – | –
O=C(O[C@H]1CN[C@H](C#Cc2cc3ncnc(Nc4ccc5c(ccn5Cc5cc(F)ccc5F)c4)c3s2)C1)N1CCOCC1 | 9.41 µM | 6.28 | 24.5 µM | 9.3 µM | 3.19 | 7.44 µM | 3.42 | 7.83 µM | 8.97 µM | 4.46 | > 25 µM | – | – | 4.06 | 4.1 | 3.86 | – | –
O=S(=O)(N/N=C/c1ccc(/C=N/NS(=O)(=O)c2ccccc2)cc1)c1ccccc1 | > 100 µM | – | > 100 µM | 54.1 µM | – | > 100 µM | – | 93.3 µM | > 100 µM | – | – | > 100 | – | – | – | – | – | –
O=[N+]([O-])c1cccc(C2N3CCCCC3[C@@H]3c4[nH]c5ccccc5c4CCN23)c1 (stereo partly specified) | 18.9 µM | – | – | 19.9 µM | – | – | – | 29.7 µM | 19.8 µM | – | 45.6 µM | 27 | 29.2 | – | – | – | – | –
COc1ccc(/C=N\NC(=O)CN2CCN(c3cc4c(cc3F)c(=O)c(C(=O)N/N=C/c3ccc(OC)c(OC)c3)cn4C3CC3)CC2)cc1OC | 3.62 µM | 3.11 | > 100 µM | 4.83 µM | 3.15 | 11.4 µM | 2.38 | 6.46 µM | > 100 µM | 3.11 | 12.5 µM | – | – | 1.81 | 2.21 | 3.46 | – | –
